Measurements reported in PubChem BioAssay (NCI).
Values joined by “and” are separate entries in the source; they are usually repeats but may differ in a detail not shown here. Equal entries are not always repeated.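 Protocol summary: plate cells (96-well), add compound at 5 concentrations, incubate 48 h, interpolate endpoints linearly. At the GI50, growth is halved. TGI: total growth inhibition.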

Experiments:
Assay in all cases: growth of human tumour cells (NCI), 48 h
ACHN renal = system: ACHN renal
EKVX NSCLC = system: EKVX NSCLC
HCT-116 colon = system: HCT-116 colon
HCT-15 colon = system: HCT-15 colon
KM12 colon = system: KM12 colon
RXF 393 renal = system: RXF 393 renal
SF-268 CNS = system: SF-268 CNS
SF-295 CNS = system: SF-295 CNS
SF-539 CNS = system: SF-539 CNS
SK-OV-3 ovarian = system: SK-OV-3 ovarian

SMILES	GI50 (ACHN renal) [µM]	TGI (ACHN renal)	GI50 (EKVX NSCLC) [µM]	TGI (EKVX NSCLC) [µM]	GI50 (HCT-116 colon)	TGI (HCT-116 colon)	GI50 (HCT-15 colon)	TGI (HCT-15 colon)	GI50 (KM12 colon)	TGI (KM12 colon)	GI50 (RXF 393 renal)	TGI (RXF 393 renal)	GI50 (SF-268 CNS)	TGI (SF-268 CNS)	GI50 (SF-295 CNS)	TGI (SF-295 CNS) [µM]	GI50 (SF-539 CNS)	TGI (SF-539 CNS)	GI50 (SK-OV-3 ovarian)	TGI (SK-OV-3 ovarian)
COc1ccc2[nH]c(Cl)c(/C=C3/C(=O)Nc4ccccc43)c2c1	0.786	5.85 µM	2.07	3.96	0.238 µM	1.17 µM	0.611 µM	3.36 µM	0.563 µM	3.09 µM	0.381 µM	6.92 µM	0.939 µM	36.5 µM	0.574 µM	1.28	0.483 µM	0.731 µM	0.865 µM	16.9 µM
NC(Cc1ccccc1)C(=O)OCN1C(=O)C2C3C=CC(C2C1=O)C1C2C(=O)N(COC(=O)C(N)Cc4ccccc4)C(=O)C2C31 (stereo not drawn)		59.2 µM and 71.3 µM		> 100		33.9 µM and 46.2 µM		35.2 µM and 35.3 µM		40.7 µM and 40.1 µM		41.7 µM and 39.3 µM		48.3 µM and 41.6 µM		> 100		44.8 µM and 44.6 µM		> 100 µM and 78.9 µM
CN1CCN(CCCOc2cccc3nc(Nc4cc(Cl)cc(Cl)c4)ccc23)CC1	1.66	3.09 µM	1.73	3.27	1.94 µM	3.47 µM	1.42 µM	2.83 µM	1.72 µM	3.29 µM	1.67 µM	3.22 µM	1.69 µM	3.38 µM	1.72 µM	3.32	1.57 µM	3.03 µM	1.76 µM	3.3 µM
COC(=O)C(C(=O)C(=O)Nc1ccc(C)cc1)c1nc2ccc([N+](=O)[O-])cc2[nH]c1=O (stereo not drawn)		> 100 µM		> 100		> 100 µM		> 100 µM		> 100 µM		> 100 µM		> 100 µM		> 100		> 100 µM		> 100 µM
CCN(C(=O)N1CCN(c2cc3c(cc2F)c(=O)c(C(=O)O)cn3C2CC2)CC1)c1nc(-c2ccccc2)cs1	1.69	9.47 µM	3.35	> 100	2.64 µM	> 100 µM	2.9 µM	> 100 µM	2.94 µM	> 100 µM	2.52 µM	8.88 µM	3.29 µM	> 100 µM	2.24 µM	8.51	2.48 µM	7.51 µM	2.1 µM	6.86 µM
c1ccc2c(c1)[nH]c1cnc3c4ncccc4[nH]c3c12		> 100 µM		> 100		> 100 µM		> 100 µM		> 100 µM		> 100 µM		> 100 µM		> 100		> 100 µM		> 100 µM
Cc1nnc(C[C@@H]2C=C(c3ccc(Cl)cc3)c3ccccc3-n3c(C)nnc32)o1	1.25	> 100 µM	6.01	> 100	0.472 µM	31.9 µM	0.461 µM	40.2 µM	6.25 µM	> 100 µM	1.39 µM	18.9 µM	13.1 µM	73.5 µM	1.71 µM	43	1.16 µM	54.3 µM	0.262 µM	12 µM
Cc1noc2cccc(O)c12		> 100 µM		> 100		> 100 µM		> 100 µM		> 100 µM		> 100 µM		> 100 µM		> 100		> 100 µM		> 100 µM
COC(=O)C(=O)C(CC(=O)Nc1cc(Cl)ccc1Cl)C(=O)OC (stereo not drawn)		> 100 µM		> 100		> 100 µM		> 100 µM		> 100 µM		> 100 µM		> 100 µM		> 100		> 100 µM		> 100 µM
CC(=O)N[C@H](C)[C@@H](O)[C@@H](C)[C@@H]1OC(=O)/C=C/C=C(C)\C=C\[C@]2(C)C[C@@H](NS(C)(=O)=O)C=C[C@@H]2/C=C(C)/C=C/[C@H]1C	0.0125	> 43.5 µM		> 43.5	0.00172 µM and 0.00435 µM	> 43.5 µM	0.0359 µM and 0.0337 µM	> 43.5 µM	0.125 µM and 0.0277 µM	> 43.5 µM	0.00352 µM and 0.00846 µM	31.1 µM	0.357 µM and 0.0531 µM	> 43.5 µM	0.00244 µM and 0.00435 µM		0.00357 µM and 0.00623 µM	> 43.5 µM	0.00446 µM and 0.00599 µM	0.0397 µM
N#C/C(=C\c1ccc(O)c(O)c1)C(=O)NCc1ccc(C(F)(F)F)cc1	6.14	23.9 µM	19.7	> 61.8	2.58 µM	11.4 µM	4.05 µM	41.1 µM	6.08 µM	26.9 µM	12.2 µM	41 µM	14.9 µM	> 62.9 µM	3.39 µM	11.8	5.5 µM	17.8 µM	16.6 µM	61.4 µM
NC(N)=NN=c1c(=O)c2ccccc2c1=O	6.46	19.2 µM	18.7	34.8	2.01 µM	4.18 µM	1.88 µM	3.84 µM	3.34 µM	10.7 µM	13.1 µM	25.9 µM	2.06 µM	3.81 µM	13.6 µM	27.7	5.67 µM	18 µM	19.6 µM	33.8 µM
